Among the data in ChEMBL document CHEMBL1909046, “DrugMatrix in vitro pharmacology data” are IC50 and Ki values, retold here.

The target of assay [1] is T1, Calcitonin receptor (Homo sapiens, UniProt P30988). Also: in other assays of this panel Not Active means under 50% inhibition at 10 µM.
T1 sequence (P30988 whole entry): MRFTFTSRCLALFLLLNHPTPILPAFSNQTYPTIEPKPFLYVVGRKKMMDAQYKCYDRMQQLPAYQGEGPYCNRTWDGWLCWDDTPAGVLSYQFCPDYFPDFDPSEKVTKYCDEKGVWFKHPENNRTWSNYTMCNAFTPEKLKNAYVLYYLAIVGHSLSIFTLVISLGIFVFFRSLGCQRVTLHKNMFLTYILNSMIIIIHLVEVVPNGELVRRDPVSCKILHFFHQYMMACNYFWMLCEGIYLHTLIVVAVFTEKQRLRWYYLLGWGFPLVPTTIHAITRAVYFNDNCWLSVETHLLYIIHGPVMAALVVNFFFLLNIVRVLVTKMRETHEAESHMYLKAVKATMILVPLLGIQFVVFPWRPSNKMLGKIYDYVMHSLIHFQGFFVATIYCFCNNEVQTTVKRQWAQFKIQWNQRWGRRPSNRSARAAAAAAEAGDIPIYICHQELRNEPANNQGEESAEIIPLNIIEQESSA
The assay is classed as cell membranes, Membrane. To be noted: t47d.

Assay [2] concerns the target Epidermal growth factor receptor (Homo sapiens, UniProt P00533). Briefly: DRUGMATRIX: Protein Tyrosine Kinase, EGF Receptor enzyme inhibition (substrate: Poly(Glu:Tyr)). The assay is classed as cell-based, Insect cells. The settings on record: Not Active = under 50% inhibition at 10 µM.
For assay [3], the target named is Prostaglandin G/H synthase 1 (Homo sapiens, UniProt P23219). Briefly: biochemical. The settings on record: platelet. The assay is classed as tissue-based, Platelet.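 Also: inhibition of COX-1 enzyme activity, with arachidonic acid supplied as substrate; in other assays of this panel Not Active means under 50% inhibition at 10 µM.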
Chain of Prostaglandin G/H synthase 1 (P23219 whole entry): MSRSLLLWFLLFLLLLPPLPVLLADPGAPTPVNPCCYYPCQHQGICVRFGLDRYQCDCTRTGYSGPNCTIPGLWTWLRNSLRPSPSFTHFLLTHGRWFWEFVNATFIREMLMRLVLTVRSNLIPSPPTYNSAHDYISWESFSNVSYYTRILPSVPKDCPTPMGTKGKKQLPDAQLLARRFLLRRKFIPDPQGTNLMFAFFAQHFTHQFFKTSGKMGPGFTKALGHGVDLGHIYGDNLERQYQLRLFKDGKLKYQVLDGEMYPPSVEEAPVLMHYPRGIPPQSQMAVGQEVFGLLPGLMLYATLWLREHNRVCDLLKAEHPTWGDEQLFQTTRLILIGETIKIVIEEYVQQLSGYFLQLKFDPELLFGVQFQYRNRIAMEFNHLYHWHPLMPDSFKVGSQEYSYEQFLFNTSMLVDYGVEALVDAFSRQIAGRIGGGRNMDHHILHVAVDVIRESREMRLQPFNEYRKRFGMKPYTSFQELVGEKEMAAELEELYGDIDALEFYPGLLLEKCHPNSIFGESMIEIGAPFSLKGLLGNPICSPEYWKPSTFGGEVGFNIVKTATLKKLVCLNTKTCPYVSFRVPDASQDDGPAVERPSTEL
In assay [4] the target is T2, Alpha-1D adrenergic receptor (Homo sapiens, UniProt P25100). Also: in other assays of this panel Not Active means under 50% inhibition at 10 µM.
T2 sequence (P25100 whole entry): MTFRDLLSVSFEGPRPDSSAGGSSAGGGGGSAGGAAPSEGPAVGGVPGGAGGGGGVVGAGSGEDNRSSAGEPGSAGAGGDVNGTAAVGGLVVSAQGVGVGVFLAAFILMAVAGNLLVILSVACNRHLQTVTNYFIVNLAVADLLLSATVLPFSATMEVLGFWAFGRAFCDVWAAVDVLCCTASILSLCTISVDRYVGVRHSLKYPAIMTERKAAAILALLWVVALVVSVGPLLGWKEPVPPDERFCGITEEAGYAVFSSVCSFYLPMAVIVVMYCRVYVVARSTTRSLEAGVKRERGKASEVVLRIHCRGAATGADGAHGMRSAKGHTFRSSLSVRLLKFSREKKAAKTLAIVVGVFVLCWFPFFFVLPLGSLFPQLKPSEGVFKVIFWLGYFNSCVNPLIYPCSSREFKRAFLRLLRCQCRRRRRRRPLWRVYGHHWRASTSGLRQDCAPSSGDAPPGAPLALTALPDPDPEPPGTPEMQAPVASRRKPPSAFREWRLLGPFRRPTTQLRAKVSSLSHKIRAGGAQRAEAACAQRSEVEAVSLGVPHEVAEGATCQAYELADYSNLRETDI
The assay is classed as cell membranes, HEK293, Membrane. The settings on record: hek293.

In assay [5] the target is Protein kinase C alpha type (Homo sapiens, UniProt P17252). The assay is classed as cell-based. The settings on record: sf9.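 Also: inhibition of PKCalpha kinase activity measured in an enzyme assay with histone as the phosphorylation substrate; in other assays of this panel Not Active means under 50% inhibition at 10 µM.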
The target in assay [6] is T3, Cathepsin G (Homo sapiens, UniProt P08311).
T3 sequence (P08311 whole entry): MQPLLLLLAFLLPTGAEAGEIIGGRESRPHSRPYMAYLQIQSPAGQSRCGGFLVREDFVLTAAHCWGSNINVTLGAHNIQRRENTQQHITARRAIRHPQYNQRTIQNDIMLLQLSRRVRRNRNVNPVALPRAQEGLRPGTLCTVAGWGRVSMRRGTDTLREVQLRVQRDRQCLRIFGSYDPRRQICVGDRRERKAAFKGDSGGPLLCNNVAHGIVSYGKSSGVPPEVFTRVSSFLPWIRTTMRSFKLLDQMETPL
The assay is classed as tissue-based. To be noted: neutrophil.

Assay [7] concerns the target Glycine receptor (Rattus norvegicus, UniProt P22771+P24524+P07727+P20781). In kind it is cell membranes, Wistar, Spinal cord, Membrane. Also: in other assays of this panel Not Active means under 50% inhibition at 10 µM.
Assay [8] addresses T4, Alpha-1A adrenergic receptor (Rattus norvegicus, UniProt P43140).
T4 sequence (P43140 whole entry): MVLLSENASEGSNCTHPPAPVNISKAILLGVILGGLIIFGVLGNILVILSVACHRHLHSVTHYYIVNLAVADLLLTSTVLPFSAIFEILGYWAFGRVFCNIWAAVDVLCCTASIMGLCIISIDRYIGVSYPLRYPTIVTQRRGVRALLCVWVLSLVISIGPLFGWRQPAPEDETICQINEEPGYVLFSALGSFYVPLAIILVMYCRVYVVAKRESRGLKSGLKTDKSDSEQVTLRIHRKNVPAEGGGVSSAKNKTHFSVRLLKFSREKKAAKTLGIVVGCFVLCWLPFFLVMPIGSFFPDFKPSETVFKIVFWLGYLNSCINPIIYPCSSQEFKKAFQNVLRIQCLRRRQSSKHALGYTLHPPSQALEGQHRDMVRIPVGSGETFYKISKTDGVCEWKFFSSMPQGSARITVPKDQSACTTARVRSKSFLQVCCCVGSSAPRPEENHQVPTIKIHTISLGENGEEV
Briefly: DRUGMATRIX: Alpha-1A adrenergic receptor radioligand binding (ligand: prazosin). In kind it is cell membranes, Wistar, Submaxillary gland, Membrane. The settings on record: Not Active = under 50% inhibition at 10 µM.

Assay [9] is described as follows: DRUGMATRIX: Phosphodiesterase PDE4 enzyme inhibition (substrate: [3H]cAMP + cAMP). To be noted: u-937; Not Active = under 50% inhibition at 10 µM.
Assay [10] addresses Beta-3 adrenergic receptor (Homo sapiens, UniProt P13945). Briefly: DRUGMATRIX: Adrenergic beta3 radioligand binding (ligand: [125I] Cyanopindolol). In kind it is cell membranes, HEK293, Membrane. The settings on record: hek293; Not Active = under 50% inhibition at 10 µM.
Assay [11] can be described thus: DRUGMATRIX: Sodium/nucleoside co-transporter radioligand binding (ligand: nitrobenzylthioinosine). The assay is classed as cell membranes, Cavia porcellus, Dunkin-Hartley, Cerebral cortex, Membrane. The settings on record: Not Active = under 50% inhibition at 10 µM.
The target of assay [12] is T5, D(4) dopamine receptor (Homo sapiens, UniProt P21917).
T5 sequence (P21917 whole entry): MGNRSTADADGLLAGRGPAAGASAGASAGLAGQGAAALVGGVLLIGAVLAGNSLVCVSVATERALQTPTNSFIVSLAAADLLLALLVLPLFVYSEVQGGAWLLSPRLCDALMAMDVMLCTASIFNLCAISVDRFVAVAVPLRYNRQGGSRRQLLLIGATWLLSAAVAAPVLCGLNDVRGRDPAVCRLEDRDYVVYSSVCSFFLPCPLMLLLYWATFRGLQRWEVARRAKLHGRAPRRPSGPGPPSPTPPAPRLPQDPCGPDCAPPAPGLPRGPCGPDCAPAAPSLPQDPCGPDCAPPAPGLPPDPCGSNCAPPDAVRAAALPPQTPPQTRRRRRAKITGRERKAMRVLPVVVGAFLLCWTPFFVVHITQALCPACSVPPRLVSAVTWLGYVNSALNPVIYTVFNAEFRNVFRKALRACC
Briefly: DRUGMATRIX: Dopamine D4.2 radioligand binding (ligand: [3H] Spiperone). The assay is classed as cell membranes, CHO-K1, Membrane. The settings on record: cho-k1; Not Active = under 50% inhibition at 10 µM.

Chain of Epidermal growth factor receptor (P00533 whole entry): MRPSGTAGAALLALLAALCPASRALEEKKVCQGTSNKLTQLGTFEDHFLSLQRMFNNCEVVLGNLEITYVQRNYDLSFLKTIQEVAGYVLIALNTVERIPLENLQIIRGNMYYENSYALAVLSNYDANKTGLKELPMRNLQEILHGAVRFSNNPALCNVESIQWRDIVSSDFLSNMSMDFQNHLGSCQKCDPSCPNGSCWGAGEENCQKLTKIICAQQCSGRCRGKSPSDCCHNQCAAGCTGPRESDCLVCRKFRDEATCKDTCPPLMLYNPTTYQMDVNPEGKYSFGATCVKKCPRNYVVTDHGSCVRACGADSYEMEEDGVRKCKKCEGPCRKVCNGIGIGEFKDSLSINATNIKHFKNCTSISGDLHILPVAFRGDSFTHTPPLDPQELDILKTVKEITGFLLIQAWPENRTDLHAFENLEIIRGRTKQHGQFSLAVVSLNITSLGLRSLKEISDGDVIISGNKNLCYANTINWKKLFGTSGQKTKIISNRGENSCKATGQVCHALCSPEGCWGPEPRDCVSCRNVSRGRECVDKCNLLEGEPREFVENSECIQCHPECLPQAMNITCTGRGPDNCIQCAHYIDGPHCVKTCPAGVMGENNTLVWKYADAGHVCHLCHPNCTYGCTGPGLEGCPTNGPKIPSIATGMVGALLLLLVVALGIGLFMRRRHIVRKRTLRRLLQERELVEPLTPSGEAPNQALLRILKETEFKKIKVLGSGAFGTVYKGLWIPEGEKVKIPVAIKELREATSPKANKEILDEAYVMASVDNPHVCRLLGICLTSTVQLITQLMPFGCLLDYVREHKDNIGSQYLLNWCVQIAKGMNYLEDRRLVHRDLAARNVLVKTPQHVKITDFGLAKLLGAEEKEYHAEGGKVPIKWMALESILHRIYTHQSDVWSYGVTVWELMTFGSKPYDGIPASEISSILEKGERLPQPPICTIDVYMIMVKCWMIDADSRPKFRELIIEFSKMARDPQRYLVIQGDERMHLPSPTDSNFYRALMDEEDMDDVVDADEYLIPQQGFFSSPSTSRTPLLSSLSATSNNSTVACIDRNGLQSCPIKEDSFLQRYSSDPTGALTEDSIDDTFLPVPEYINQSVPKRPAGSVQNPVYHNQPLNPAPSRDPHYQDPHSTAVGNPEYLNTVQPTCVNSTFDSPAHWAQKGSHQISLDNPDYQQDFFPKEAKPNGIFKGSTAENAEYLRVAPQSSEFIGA
Chain of Beta-3 adrenergic receptor (P13945 whole entry): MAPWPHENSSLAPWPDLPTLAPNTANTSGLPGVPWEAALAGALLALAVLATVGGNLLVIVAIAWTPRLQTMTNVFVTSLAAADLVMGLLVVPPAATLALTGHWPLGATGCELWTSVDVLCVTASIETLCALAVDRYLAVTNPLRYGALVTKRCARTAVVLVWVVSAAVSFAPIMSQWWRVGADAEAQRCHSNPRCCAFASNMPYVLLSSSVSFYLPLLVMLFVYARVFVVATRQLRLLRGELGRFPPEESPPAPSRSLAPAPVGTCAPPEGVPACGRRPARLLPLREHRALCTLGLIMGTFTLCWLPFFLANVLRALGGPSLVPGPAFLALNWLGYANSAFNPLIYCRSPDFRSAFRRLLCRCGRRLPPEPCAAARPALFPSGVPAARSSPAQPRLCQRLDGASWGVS

Usually IC50 stands for the midpoint of a concentration-inhibition curve. By Ki is commonly meant a dissociation constant, usually derived from enzyme kinetics or from competition with a known ligand. As for `CN(C)[C@@H]1C(O)=C(C(N)=O)C(=O)[C@@]2(O)C(O)=C3C(=O)c4c(O)cccc4[C@@](C)(O)[C@H]3C[C@@H]12` [TETRACYCLINE], the concentration for half-maximal inhibition (IC50) result in assay [1], in assay [2] (insect cells), in [3], in [4], in [5] and in assay [6] was “Not Active” each time. The IC50 result in assay [7], in assay [8], in [9], in assay [10], in assay [11] and in assay [12] was “Not Active” each time. Moreover, the Ki entry in [9] and in assay [11] was “Not Active” each time.
Regarding `CO[C@@H]1[C@@H](O[C@@H]2O[C@H](C)[C@@H](O[C@H]3C[C@@](C)(O)[C@@H](OC(=O)CC(C)C)[C@H](C)O3)[C@H](N(C)C)[C@H]2O)[C@@H](CC=O)C[C@@H](C)[C@@H](O)/C=C/C=C/C[C@@H](C)OC(=O)C[C@H]1O` [KITASAMYCIN], the IC50 entry in [1], in [2] (insect cells), in assay [3], in [4], in assay [5] and in assay [6] was “Not Active” in each case. For the same compound, the IC50 result in assay [7] is “Not Active”; in [8] (read-out: IC50), 1540 nM; in assay [9], “Not Active”; in assay [10], “Not Active”; in [11] it was “Not Active”; in assay [12] it was “Not Active”. In addition, the Ki is 625 nM in [8] (read-out: Ki), “Not Active” in assay [9] and “Not Active” in assay [11].
With `Oc1c(I)cc(I)c2cccnc12` [IODOQUINOL], the IC50 result in assay [1] is “Not Active”; in assay [2] (read-out: IC50), 1890 nM; in [3] it was “Not Active”; in assay [4], “Not Active”; in [5], “Not Active”; in assay [6], “Not Active”. Moreover, the IC50 result in [7], in assay [8], in [9], in assay [10], in assay [11] and in [12] was “Not Active” each time. For the same compound, the Ki entry in assay [9] and in assay [11] was “Not Active” in each case.
With `NC(CO)(CO)CO` [TROMETHAMINE], the IC50 entry in assay [1], in assay [2] (insect cells), in [3], in assay [4], in assay [5] and in assay [6] was “Not Active” each time. Besides, the IC50 result in assay [7], in [8], in assay [9], in assay [10], in assay [11] and in assay [12] was “Not Active” throughout. For the same compound, the Ki result in [9] and in assay [11] was “Not Active” in each case.
